According to PubChem BioAssay AID2060606 (Molecular Pharmacology Branch, DTP, NCI, 2025):

System: 922993-354-T-J3-PDC complex spheroids, viability, % test/control
Assay: Anticancer human tumor 922993-354-T-J3-PDC patient-derived endometrial carcinoma cell line growth inhibition [CLK]
Settings: for IC50: curve of first compound; for viability, T/C: stronger effect = lower value
Method in brief: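 Multi-cell-type spheroids combined patient-derived tumor cells with HUVEC endothelial cells and human mesenchymal stem cells. Paired agents were dosed in half-log steps down from about clinical Cmax, or from 10 microM where Cmax was unknown.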

[1] = second compound 0.0316 µM, first compound 0.0316 µM
[2] = second compound 0.0316 µM, first compound 0.1 µM
[3] = second compound 0.1 µM, first compound 0.0316 µM
[4] = second compound 0.1 µM, first compound 0.1 µM
[5] = second compound 0.316 µM, first compound 0.0316 µM
[6] = second compound 0.316 µM, first compound 0.1 µM
[7] = second compound 1 µM, first compound 0.0316 µM
[8] = second compound 1 µM, first compound 0.1 µM
[9] = second compound 3.16 µM, first compound 0.0316 µM
[10] = second compound 3.16 µM, first compound 0.1 µM
[11] = second compound 10 µM, first compound 0.0316 µM
[12] = second compound 10 µM, first compound 0.1 µM
[13] = second compound 0.0316 µM, first compound 0.316 µM
[14] = second compound 0.0316 µM, first compound 1 µM
[15] = second compound 0.0316 µM, first compound 3.16 µM
[16] = second compound 0.0316 µM, first compound 10 µM
[17] = second compound 0.1 µM, first compound 0.316 µM
[18] = second compound 0.1 µM, first compound 1 µM
[19] = second compound 0.1 µM, first compound 3.16 µM
[20] = second compound 0.1 µM, first compound 10 µM
[21] = second compound 0.316 µM, first compound 0.316 µM
[22] = second compound 0.316 µM, first compound 1 µM
[23] = second compound 0.316 µM, first compound 3.16 µM
[24] = second compound 0.316 µM, first compound 10 µM
[25] = second compound 1 µM, first compound 0.316 µM
[26] = second compound 1 µM, first compound 1 µM
[27] = second compound 1 µM, first compound 3.16 µM
[28] = second compound 1 µM, first compound 10 µM
[29] = second compound 3.16 µM, first compound 0.316 µM
[30] = second compound 3.16 µM, first compound 1 µM
[31] = second compound 3.16 µM, first compound 3.16 µM
[32] = second compound 3.16 µM, first compound 10 µM
[33] = second compound 10 µM, first compound 0.316 µM
[34] = second compound 10 µM, first compound 1 µM
[35] = second compound 10 µM, first compound 3.16 µM
[36] = second compound 10 µM, first compound 10 µM
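Note: spheroids exposed to the agents for 7 days before readout.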

Cn1ncnc1[C@H]1c2n[nH]c(=O)c3cc(F)cc(c23)N[C@@H]1c1ccc(F)cc1 + CNC(=O)c1ccc(Nc2nc(OC3CCCC3)c3c(-c4ccc5nc(C)oc5c4)c[nH]c3n2)c(OC)c1
IC50 (second compound 0.0316 µM): > 100 nM | IC50 (second compound 0.1 µM): > 100 nM | IC50 (second compound 0.316 µM): > 100 nM | IC50 (second compound 1 µM): < 0.316 nM | IC50 (second compound 3.16 µM): < 0.316 nM | IC50 (second compound 10 µM): < 0.316 nM | viability, T/C (second compound 0.0316 µM, first compound 0.000316 µM): 92% | viability, T/C (second compound 0.0316 µM, first compound 0.001 µM): 99.2% | viability, T/C (second compound 0.0316 µM, first compound 0.00316 µM): 88.9% | viability, T/C (second compound 0.0316 µM, first compound 0.01 µM): 104% | viability, T/C [1]: 97.6% | viability, T/C [2]: 84.6% | viability, T/C (second compound 0.1 µM, first compound 0.000316 µM): 109% | viability, T/C (second compound 0.1 µM, first compound 0.001 µM): 114% | viability, T/C (second compound 0.1 µM, first compound 0.00316 µM): 106% | viability, T/C (second compound 0.1 µM, first compound 0.01 µM): 104% | viability, T/C [3]: 113% | viability, T/C [4]: 94.4% | viability, T/C (second compound 0.316 µM, first compound 0.000316 µM): 77.3% | viability, T/C (second compound 0.316 µM, first compound 0.001 µM): 64.4% | viability, T/C (second compound 0.316 µM, first compound 0.00316 µM): 56.6% | viability, T/C (second compound 0.316 µM, first compound 0.01 µM): 73.2% | viability, T/C [5]: 76.1% | viability, T/C [6]: 57.2% | viability, T/C (second compound 1 µM, first compound 0.000316 µM): 36.9% | viability, T/C (second compound 1 µM, first compound 0.001 µM): 34% | viability, T/C (second compound 1 µM, first compound 0.00316 µM): 32.4% | viability, T/C (second compound 1 µM, first compound 0.01 µM): 33.9% | viability, T/C [7]: 32.4% | viability, T/C [8]: 27.1% | viability, T/C (second compound 3.16 µM, first compound 0.000316 µM): 28.9% | viability, T/C (second compound 3.16 µM, first compound 0.001 µM): 33.7% | viability, T/C (second compound 3.16 µM, first compound 0.00316 µM): 32.1% | viability, T/C (second compound 3.16 µM, first compound 0.01 µM): 30.8% | viability, T/C [9]: 28% | viability, T/C [10]: 21% | viability, T/C (second compound 10 µM, first compound 0.000316 µM): 28.8% | viability, T/C (second compound 10 µM, first compound 0.001 µM): 34.2% | viability, T/C (second compound 10 µM, first compound 0.00316 µM): 31.2% | viability, T/C (second compound 10 µM, first compound 0.01 µM): 28.8% | viability, T/C [11]: 24.1% | viability, T/C [12]: 20.8%

Nc1ccn(C2OC(CO)C(O)C2(F)F)c(=O)n1 (stereo unspecified) + CNC(=O)c1ccc(Nc2nc(OC3CCCC3)c3c(-c4ccc5nc(C)oc5c4)c[nH]c3n2)c(OC)c1
IC50 (second compound 0.0316 µM): < 31.6 nM | IC50 (second compound 0.1 µM): < 31.6 nM | IC50 (second compound 0.316 µM): < 31.6 nM | IC50 (second compound 1 µM): < 31.6 nM | IC50 (second compound 3.16 µM): < 31.6 nM | IC50 (second compound 10 µM): < 31.6 nM | viability, T/C [1]: 15.7% | viability, T/C [2]: 17.5% | viability, T/C [13]: 18% | viability, T/C [14]: 16.6% | viability, T/C [15]: 15.5% | viability, T/C [16]: 18.3% | viability, T/C [3]: 17.9% | viability, T/C [4]: 16.2% | viability, T/C [17]: 15.7% | viability, T/C [18]: 14.9% | viability, T/C [19]: 12.5% | viability, T/C [20]: 17.3% | viability, T/C [5]: 15.7% | viability, T/C [6]: 15.5% | viability, T/C [21]: 16.5% | viability, T/C [22]: 18.1% | viability, T/C [23]: 16.9% | viability, T/C [24]: 17.2% | viability, T/C [7]: 14.7% | viability, T/C [8]: 14.6% | viability, T/C [25]: 12.9% | viability, T/C [26]: 13.3% | viability, T/C [27]: 14.8% | viability, T/C [28]: 13.2% | viability, T/C [9]: 13.6% | viability, T/C [10]: 15.8% | viability, T/C [29]: 11.8% | viability, T/C [30]: 12.4% | viability, T/C [31]: 12.9% | viability, T/C [32]: 13.1% | viability, T/C [11]: 13% | viability, T/C [12]: 12.5% | viability, T/C [33]: 10.8% | viability, T/C [34]: 11.6% | viability, T/C [35]: 12.7% | viability, T/C [36]: 11.4%

O=c1[nH]cc(F)c(=O)[nH]1 + CNC(=O)c1ccc(Nc2nc(OC3CCCC3)c3c(-c4ccc5nc(C)oc5c4)c[nH]c3n2)c(OC)c1
IC50 (second compound 0.0316 µM): 7510 nM | IC50 (second compound 0.1 µM): 4990 nM | IC50 (second compound 0.316 µM): 4060 nM | IC50 (second compound 1 µM): < 31.6 nM | IC50 (second compound 3.16 µM): < 31.6 nM | IC50 (second compound 10 µM): < 31.6 nM | viability, T/C [1]: 110% | viability, T/C [2]: 104% | viability, T/C [13]: 103% | viability, T/C [14]: 103% | viability, T/C [15]: 75.5% | viability, T/C [16]: 41.6% | viability, T/C [3]: 91.3% | viability, T/C [4]: 119% | viability, T/C [17]: 106% | viability, T/C [18]: 98.2% | viability, T/C [19]: 64.3% | viability, T/C [20]: 28.3% | viability, T/C [5]: 68% | viability, T/C [6]: 64% | viability, T/C [21]: 57.7% | viability, T/C [22]: 60.7% | viability, T/C [23]: 56.5% | viability, T/C [24]: 29.9% | viability, T/C [7]: 34% | viability, T/C [8]: 40.4% | viability, T/C [25]: 33.7% | viability, T/C [26]: 31.7% | viability, T/C [27]: 32.9% | viability, T/C [28]: 23.9% | viability, T/C [9]: 33.4% | viability, T/C [10]: 37.3% | viability, T/C [29]: 31.5% | viability, T/C [30]: 29.5% | viability, T/C [31]: 28.5% | viability, T/C [32]: 20.8% | viability, T/C [11]: 35.1% | viability, T/C [12]: 30.4% | viability, T/C [33]: 29% | viability, T/C [34]: 29% | viability, T/C [35]: 31.2% | viability, T/C [36]: 19.7%
